Test [1] addresses T1, human TLR7 (Homo sapiens, UniProt Q9NYK1).
T1 construct: host or cells: HEK293
T1 sequence (Q9NYK1 27-1049): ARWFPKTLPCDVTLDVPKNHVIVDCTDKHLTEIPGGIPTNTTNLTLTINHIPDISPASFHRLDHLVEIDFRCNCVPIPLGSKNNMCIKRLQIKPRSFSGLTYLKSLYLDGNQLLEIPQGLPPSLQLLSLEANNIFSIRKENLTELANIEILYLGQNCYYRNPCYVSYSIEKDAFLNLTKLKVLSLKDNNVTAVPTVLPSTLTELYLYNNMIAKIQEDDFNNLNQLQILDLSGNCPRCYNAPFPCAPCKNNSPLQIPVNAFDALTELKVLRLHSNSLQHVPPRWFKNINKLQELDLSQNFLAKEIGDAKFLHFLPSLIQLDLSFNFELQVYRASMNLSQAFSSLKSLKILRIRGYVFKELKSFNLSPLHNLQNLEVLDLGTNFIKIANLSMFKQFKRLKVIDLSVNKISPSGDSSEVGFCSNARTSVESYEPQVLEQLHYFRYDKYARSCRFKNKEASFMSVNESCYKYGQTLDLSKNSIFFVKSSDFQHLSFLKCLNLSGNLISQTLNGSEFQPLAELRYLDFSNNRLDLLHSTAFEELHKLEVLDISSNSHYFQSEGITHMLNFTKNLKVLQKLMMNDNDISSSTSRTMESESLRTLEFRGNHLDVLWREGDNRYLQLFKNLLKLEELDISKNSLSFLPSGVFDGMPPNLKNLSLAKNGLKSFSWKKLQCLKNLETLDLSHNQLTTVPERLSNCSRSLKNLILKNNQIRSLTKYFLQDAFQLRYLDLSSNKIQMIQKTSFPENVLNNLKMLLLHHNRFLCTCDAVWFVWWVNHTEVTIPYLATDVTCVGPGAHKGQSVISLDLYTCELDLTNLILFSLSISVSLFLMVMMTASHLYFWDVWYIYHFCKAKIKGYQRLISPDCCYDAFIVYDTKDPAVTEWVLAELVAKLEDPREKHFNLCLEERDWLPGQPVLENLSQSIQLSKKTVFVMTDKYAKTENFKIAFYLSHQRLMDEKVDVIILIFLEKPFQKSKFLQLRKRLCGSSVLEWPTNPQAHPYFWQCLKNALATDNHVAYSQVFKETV
Put plainly: TLR7 reporter cell assay (HEK293 cells stably expressing human TLR7 with NF-κB-driven SEAP reporter). Conditions: for EC50: fit of SEAP dose response, ymax from 28.5 μM resiquimod. In kind it is cell-based. From the text: The engagement of TLRs by cognate ligands triggers downstream signaling cascades, leading to the activation of NF-κB and other transcription factors which initiate various immunomodulatory effects. The human embryonic kidney cell line, HEK293, is essentially non-responsive to TLR agonists, but ectopic expression of TLRs in these cells allows cognate agonists to activate endogenous NF-κB. Accordingly, the HEK293-TLR-NF-κB inducible reporter system is used to assay TLR agonists.
HEK293 cell lines stably expressing human TLR7 or TLR8 together with an NF-κB-driven-secreted alkaline phosphatase (SEAP) reporter were invented at InvivoGen (San Diego, California, USA) and used to assess compounds of the present invention for TLR7 and TLR8 agonist activities. Cells were seeded at 2-5×10^4 cells/well in 96 well plates (200 μl/well) and treated with various concentrations of compound (10 μl) for 15-24 hours. SEAP activity was determined by measuring OD at 650 nm; the media used to culture the cell lines contains the reagents required for SEAP detection. The EC50 values in Table 1 are calculated from fitting the dose response of measured SEAP activity for each compound to the following equation: Y=ymax*c^nh/(EC50^nh+c^nh)+blank where Y is the experimentally measured OD650 at concentration c of test article, blank is the observed OD650 in the absence of TLR7 agonist, ymax is the difference between the measured OD650 in the presence of 28.5 μM resiquimod and the blank and values of EC50 and nh are determined by nonlinear least squares analysis. Resiquimod is a known TLR7 and TLR8 agonist.
Compound A is 5-amino-3-((2R,3R,5S)-3-hydroxy-5-((S)-1-hydroxypropyl)tetrahydrofuran-2-yl)thiazolo[4,5-d]pyrimidine-2,7(3H,6H)-dione)

Test [2] has as its system hPBMCs (Human Peripheral Blood Mononuclear Cells). Kind of test: Induction of interferon-α in hPBMCs in vitro. Conditions: for Emax / minimal effective concentration: Homo sapiens, PBMC; for Emax: 24 h, peak IFNα2a as percentage of peak response of standard 2-Amino-7-(cyclopropylmethyl)-9-B-D-xylofuranosyl-7,9-dihydro-1H-purine-6,8-dione, averaged across donors, read-out: IFNrmax, Relative Maximal IFNα2a Production (%); for minimal effective concentration: minimal effective concentration for interferon-α production (generally at least 80 pg/ml above baseline), geometric mean across at least three donors, 24 hours, read-out: Weighted MEC. In kind it is cell-based. How it is done:
Treatment of hPBMCs with a TLR7 agonist typically induces some production of interferon-α as well as lesser amounts of a variety of other cytokines and chemokines. A typical experiment uses hPBMCs isolated from a healthy donor and placed in replicate cell culture wells; typically 1.0-7.5×10^6 cells are placed in each well. A test compound is added and the cells are cultured for 24 hours at 37° C. in a humidified atmosphere containing 5% CO2 post-addition; untreated controls are included. Secreted interferon-α production is measured using an a multisubtype interferon-α ELISA kit like those from PBL Assay Sciences or specifically as IFNα2a as part of a panel of cytokines and chemokines using luminex methodologies.
The minimal effective concentration (MEC) is the minimum concentration in a dose response curve where a significant increase in interferon-α production (generally at least 80 pg/ml) is observed above baseline. MEC values for each compound are determined for at least three donors. The weighted MEC for each compound is the geometric mean of all individual MECs across all donors. Concentrations tested typically consist of a two-fold dilution series starting at 100 μM. In the calculation of weighted MEC, any individual MEC value greater the highest concentration tested is arbitrarily set to two times the highest concentration tested unless all MECs for a compound exceed this value. The maximal amount of IFNα2a for each donor is determined from dose dependence for each compound.
In order to normalize for variation in each hPBMC preparation, these values are first transformed by expressing as a percentage of peak response measured with a standard (2-Amino-7-(cyclopropylmethyl)-9-B-D-xylofuranosyl-7,9-dihydro-1H-purine-6,8-dione) and then averaging the results across all donors, this average referred to as IFNrmax.
IFNmax is the maximum amount of IFN observed at any concentration across the evaluated concentration range. MEC and IFNmax values for three select compound are shown for three donors (Table 3). The range of tested concentrations were 0.625-5 μM for Imiquimod, 3.125-100 μM for both Compound A and Compound 1, 12.5-100 μM for Compound 2.

Setting [3] is: HEK293, 500 μM compound, SEAP activity (OD 650 nm) relative to 28.5 μM resiquimod, 15-24 hours, read-out: Response at 500 μM Compound as a Percent of Resiquimod Response.

We go through ten compounds from patent US12187759B2, “TLR7 agonists” (Primmune Therapeutics, Inc., priority 2019, dated 2025).

Like-named read-outs stand apart in the source and are kept apart here.

The EC50 is the concentration at which the effect is half-maximal. A low value points to higher potency in that assay. Turning to `C#CCn1c(=O)n([C@@H]2O[C@H]([C@@H](O)CC)[C@H](F)[C@H]2O)c2nc(N)[nH]c(=O)c21` [Compound 13, 2-Amino-9-((2R,3S,4R,5R)-4-fluoro-3-hydroxy-5-((S)-1-hydroxypropyl)tetrahydrofuran-2-yl)-7-(prop-2-yn-1-yl)-7,9-dihydro-1H-purine-6,8-dione], the Emax at 500 µM in test [1] (setting [3]) came to 92%. In addition, in test [1] (15-24 hours), the EC50 was 119 µM. In test [2], the Emax came out at 353% and the minimal effective concentration was at most 3.3 µM.

On to `C#CCn1c(=O)n([C@@H]2O[C@H](C(C)(C)O)C[C@H]2O)c2nc(N)[nH]c(=O)c21` [Compound 18, 2-Amino-9-((2R,3R,5S)-3-hydroxy-5-(2-hydroxypropan-2-yl)tetrahydrofuran-2-yl)-7-(prop-2-yn-1-yl)-7,9-dihydro-1H-purine-6,8-dione], for which, in test [1] (setting [3]), the Emax at 500 µM is under 5%. In addition, in test [2], the Emax was at most 10% and the minimal effective concentration is over 50 µM.

With `Nc1nc2c(c(=O)[nH]1)n(CCC(F)(F)F)c(=O)n2[C@@H]1O[C@H]([C@@H](O)C(F)(F)F)C[C@H]1O` [Compound 28, 2-Amino-9-((2R,3R,5S)-3-hydroxy-5-((R)-2,2,2-trifluoro-1-hydroxyethyl)tetrahydrofuran-2-yl)-7-(3,3,3-trifluoropropyl)-7,9-dihydro-1H-purine-6,8-dione], the Emax at 500 µM in test [1] (setting [3]) was 47%. In test [1] (15-24 hours), this compound yielded an EC50 of 519 µM. In test [2], the Emax was determined as 105% and the minimal effective concentration was 9.9 µM.

With `C#CCn1c(=O)n([C@@H]2O[C@H](C(=O)OC)C[C@H]2O)c2nc(N)[nH]c(=O)c21` [Compound 39, Methyl (2S,4R,5R)-5-(2-amino-6,8-dioxo-7-(prop-2-yn-1-yl)-1,6,7,8-tetrahydro-9H-purin-9-yl)-4-hydroxytetrahydrofuran-2-carboxylate], in test [1] (setting [3]), the Emax at 500 µM was under 5%. Also, in test [2], the Emax is at most 10% and the minimal effective concentration was over 50 µM.

Consider `Nc1nc2c(c(=O)[nH]1)n(CC1CC1)c(=O)n2[C@@H]1O[C@H]([C@@H](O)C(F)(F)F)C[C@H]1O` [Compound 29, 2-Amino-7-(cyclopropylmethyl)-9-((2R,3R,5S)-3-hydroxy-5-((R)-2,2,2-trifluoro-1-hydroxyethyl)tetrahydrofuran-2-yl)-7,9-dihydro-1H-purine-6,8-dione], for which the Emax at 500 µM in test [1] (setting [3]) came to 79%. Moreover, the midpoint of the response in test [1] (15-24 hours), the EC50, lay at 201 µM. Further, in test [2], the Emax was 83% and the minimal effective concentration worked out at 6.3 µM.

On to `CC[C@H](O)[C@H]1O[C@@H](n2c(=O)n(CCSC)c3c(=O)[nH]c(N)nc32)[C@H](O)[C@H]1F` [Compound 46, 2-Amino-9-((2R,3S,4R,5R)-4-fluoro-3-hydroxy-5-((S)-1-hydroxypropyl)tetrahydrofuran-2-yl)-7-(2-(methylthio)ethyl)-7,9-dihydro-1H-purine-6,8-dione], for which the Emax at 500 µM in test [1] (setting [3]) stood at 30%. The EC50 in test [1] (15-24 hours) was over 500 µM. In test [2], the Emax is 317% and the minimal effective concentration was determined as 3.1 µM.

`CC[C@H](O)[C@H]1O[C@@H](n2c(=O)n(CC(F)(F)F)c3c(=O)[nH]c(N)nc32)[C@H](O)[C@H]1F` [Compound 44, 2-Amino-9-((2R,3S,4R,5R)-4-fluoro-3-hydroxy-5-((S)-1-hydroxypropyl)tetrahydrofuran-2-yl)-7-(2,2,2-trifluoroethyl)-7,9-dihydro-1H-purine-6,8-dione]: the Emax at 500 µM in test [1] (setting [3]) stood at 101%. In addition, the EC50 in test [1] (15-24 hours) is 86 µM. In test [2], the Emax is 250% and the minimal effective concentration came out at 2 µM.

As to `C#CCn1c(=O)n([C@@H]2O[C@H]([C@H](O)CF)C[C@H]2O)c2nc(N)[nH]c(=O)c21` [Compound 23, 2-Amino-9-((2R,3R,5S)-5-((S)-2-fluoro-1-hydroxyethyl)-3-hydroxytetrahydrofuran-2-yl)-7-(prop-2-yn-1-yl)-7,9-dihydro-1H-purine-6,8-dione], the Emax at 500 µM in test [1] (setting [3]) is under 5%. Also, in test [2], the Emax was at most 10% and the minimal effective concentration was over 50 µM.

Regarding `C#CCn1c(=O)n([C@@H]2O[C@H]([C@@H](O)CSC)C[C@H]2O)c2nc(N)[nH]c(=O)c21` [Compound 45, 2-Amino-9-((2R,3R,5S)-3-hydroxy-5-((R)-1-hydroxy-2-(methylthio)ethyl)tetrahydrofuran-2-yl)-7-(prop-2-yn-1-yl)-7,9-dihydro-1H-purine-6,8-dione], the Emax at 500 µM in test [1] (setting [3]) turned out to be 66%. This compound had an EC50 in test [1] (15-24 hours) of 185 µM. Further, in test [2], the Emax amounted to 321% and the minimal effective concentration was determined as 5 µM.

`C#CCn1c(=O)n([C@@H]2O[C@H]([C@H](O)CC)C[C@H]2O)c2nc(N)[nH]c(=O)c21` [Compound 2, 2-amino-9-((2R,3R,5S)-3-hydroxy-5-((R)-1-hydroxypropyl)tetrahydrofuran-2-yl)-7-(prop-2-yn-1-yl)-7,9-dihydro-1H-purine-6,8-dione]: the Emax at 500 µM in test [1] (HEK293, read-out: Response at 500 μM Compound as a Percent of Resiquimod Response) was under 5%. Besides, the “Donor 1 MEC” value in test [2] (Donor 1, interferon-α production) stood at 50 µM. Besides, the “Donor 1 IFNmax” value in test [2] (Donor 1, maximum IFN at any concentration of the evaluated range) came out at 4523 pg/mL. In addition, the “Donor 2 MEC” value in test [2] (Donor 2, interferon-α production) was over 100 µM. Further, the “Donor 2 IFNmax” value in test [2] (Donor 2, maximum IFN at any concentration of the evaluated range) came to 9 pg/mL. Moreover, the “Donor 3 MEC” value in test [2] (Donor 3, interferon-α production) came to 100 µM. Besides, the “Donor 3 IFNmax” value in test [2] (Donor 3, maximum IFN at any concentration of the evaluated range) was 3110 pg/mL.
